This passage reports responders and inhibition in vivo results from patent US10800758B2, “Pyrimidine compound” (OTSUKA PHARMACEUTICAL CO., LTD., priority 2017, dated 2020).

A value given as a limit tells only on which side of the number the result lay.

Type in all cases: in vivo
The subject of assay [1] is ICR mice. Briefly: Subcutaneous pentylenetetrazole (scPTZ) model. Conditions: Mus musculus; male ICR mice, 30 mg/kg oral, 85 mg/kg pentylenetetrazole s.c. after 1 hour, evaluated for 30 minutes; read-out: rate of suppression against clonic convulsions. As for the experimental part: This test is performed to evaluate the anticonvulsant activity of the compound as in Test Example 2. Unlike the phenotype of Test Example 2, the animal model used in this test is a phenotype model of generalized absence seizure and myoclonic seizure.
The test compound was suspended in 5% gum arabic/distilled water (w/v), and administered by forced oral administration to male ICR mice (Japan SLC, Inc., 5 to 6 weeks old, 10 per group) at a dose of 30 mg/kg. After 1 hour, 85 mg/kg of pentylenetetrazole dissolved in saline was administered subcutaneously, and the occurrence of clonic convulsions was evaluated for 30 minutes.

For a further assay, the system named is DBA/2 mice. Briefly: Audiogenic seizure model. Conditions: Mus musculus; male and female DBA/2 mice, 30 mg/kg oral, auditory stimulation 1 hour after administration; read-out: Seizure suppression rate (%). How it is done: The animal model used in this test is a phenotype model for partial seizure (including secondary generalized seizure) and generalized tonic-clonic seizure, and has high clinical predictability. This test was performed in accordance with the report of De Sarro et al (Br J Pharmacol. 1988 February; 93(2): 247-56. Anticonvulsant effects of some calcium entry blockers in DBA/2 mice. De Sarro G B, Meldrum B S, Nistico G.).
In this test example, the example compounds shown in Table 3 below were used as test compounds. The following compound (compound of Example 5 of WO 2004/009559), which is the most similar compound when the substituent position is taken into consideration, was used as a comparative example compound.
The test compounds were suspended in 5% gum arabic/distilled water (w/v), and administered by forced oral administration to male and female DBA/2 mice (Japan SLC, Inc., 3 weeks old, 8 per group) at a dose of 30 mg/kg. After one hour of the oral administration of the test compound, each mouse was placed in a transparent acrylic cylinder 30 cm high and 23 cm in diameter, and 30 seconds were allowed for habituation. Then, they were exposed to auditory stimulation (12.6 kHz, 100-110 dB) for 1 minute or until a tonic seizure occurred.
The seizure response was assessed using the following scale, 0: no seizure, 1: wild running, 2: clonic seizure, 3: tonic seizure and 4: respiratory arrest. The maximum response was recorded as the seizure severity score.
The seizure suppression rate for each compound administration group was calculated according to the following formula.

In assay [2] the test system is ICR mice. Briefly: Maximal electroshock seizure (MES) model. Conditions: Mus musculus; male ICR mice, 30 mg/kg oral, electrical stimulation (30 mA, 100 Hz, 0.2 second) 1 hour after administration; read-out: rate of seizure suppression (tonic hindlimb extension seizure). How it is done:
This test is performed to evaluate the anticonvulsant activity of the compound. The mouse model used in this test is a phenotype model of generalized tonic-clonic seizure and secondary generalized partial seizure. This test was performed in accordance with the report of AJ Hill et al (Br J Pharmacol. 2012 December; 167(8): 1629-42. Cannabidivarin is anticonvulsant in mouse and rat, Hill A J, et al.).
The test compound was suspended in 5% gum arabic/distilled water (w/v), and administered by forced oral administration to male ICR mice (Japan SLC, Inc., 5 to 6 weeks old, 8 per group) at a dose of 30 mg/kg. After one hour of the oral administration of the test compound, the mice were stimulated by an application of electrical current (30 mA, 100 Hz, 0.2 second) through auricular electrodes using an electroconvulsive device (UGO BASILE SRL). Then, the incidence of tonic hindlimb extension seizure was recorded. In this test, tonic hindlimb extension seizures were induced in all mice of the solvent administration group, but the rate of seizure suppression was 75% or more with the example compounds 1, 2, 3, 5, 8, 10, 12, 13, 14, 16, 18, 22, 26, 28, 30, 31, 38, 42, 47, 48 and 54, and the suppression rate was 50% or more with the example compounds 4, 6, 9, 11, 23, 41 and 45.
On the technique in general: In the maximal electroshock model the usual endpoint is tonic extension of the hind limbs.

In the case of `O=c1ccn(-c2cnc(Oc3ccccc3)nc2)c(=O)[nH]1` [Example 4, 1-(2-Phenoxypyrimidin-5-yl)pyrimidine-2,4(1H,3H)-dione], the responders at 30 mg/kg is ≥ 75% with ICR mice [1] and ≥ 50% in the assay on ICR mice [2]. Besides, in the assay with DBA/2 mice, the inhibition in vivo at 30 mg/kg came out at 100%.
Turning to `C[Si](C)(C)c1cccc(Oc2ncc(N3CCC(=O)NC3=O)cn2)c1` [Example 56], the responders at 30 mg/kg in the assay on ICR mice [1] was ≥ 50%. Besides, the inhibition in vivo at 30 mg/kg with DBA/2 mice worked out at 82%.
With `COc1nc(Oc2cc(F)cc(F)c2)ncc1N1CCC(=O)NC1=O` [Example 54], in the assay on DBA/2 mice, the inhibition in vivo at 30 mg/kg was 93%. In the assay with ICR mice [2], the responders at 30 mg/kg was ≥ 75%.
`COc1nc(Oc2ccccc2F)ncc1N1CCC(=O)NC1=O` [Example 47]: in the assay on DBA/2 mice, the inhibition in vivo at 30 mg/kg was 87%. The responders at 30 mg/kg in the assay with ICR mice [2] was ≥ 75%.
For the compound `COc1nc(Oc2ccc(F)cc2F)ncc1N1CCC(=O)NC1=O` [Example 53], in the assay with DBA/2 mice, the inhibition in vivo at 30 mg/kg worked out at 83%.
`O=C1CCN(c2cnc(Oc3cccc(S(F)(F)(F)(F)F)c3)nc2)C(=O)N1` [Example 24]: in the assay on DBA/2 mice, the inhibition in vivo at 30 mg/kg was found to be 90%.
Regarding `C#Cc1cccc(Oc2ncc(N3CCC(=O)NC3=O)cn2)c1` [Example 28], the responders at 30 mg/kg with ICR mice [1] and with ICR mice [2] was ≥ 75% each time. Besides, the inhibition in vivo at 30 mg/kg with DBA/2 mice came out at 100%.
Consider `O=C1CCN(c2cnc(Oc3c(F)cccc3F)nc2)C(=O)N1` [Example 13], for which the responders at 30 mg/kg in the assay on ICR mice [1] and in the assay with ICR mice [2] was ≥ 75% throughout. Further, the inhibition in vivo at 30 mg/kg in the assay on DBA/2 mice was 100%.
On to `COc1nc(Oc2cccc(F)c2)ncc1N1CCC(=O)NC1=O` [Example 42], for which the values for the responders at 30 mg/kg with ICR mice [1] and with ICR mice [2] were ≥ 50% and ≥ 75%, respectively. For the same compound, the inhibition in vivo at 30 mg/kg in the assay on DBA/2 mice was determined as 96%.
With `O=C1CCN(c2cnc(-c3ccccc3)nc2)C(=O)N1` [Example 30], in the assay on DBA/2 mice, the inhibition in vivo at 30 mg/kg turned out to be 97%. For the same compound, the responders at 30 mg/kg in the assay with ICR mice [2] is ≥ 75%.
In the case of `O=C1CCN(c2cnc(Sc3ccccc3)nc2)C(=O)N1` [Example 8, 1-[2-(Phenylthio)pyrimidin-5-yl]-5,6-dihydropyrimidine-2,4(1H,3H)-dione], the inhibition in vivo at 30 mg/kg in the assay on DBA/2 mice came out at 100%. The responders at 30 mg/kg with ICR mice [2] was ≥ 75%.
On to `O=C1CCN(c2cnc(Oc3ccc(F)cc3F)nc2)C(=O)N1` [Example 12], for which the responders at 30 mg/kg is ≥ 50% in the assay with ICR mice [1] and ≥ 75% in the assay with ICR mice [2]. The inhibition in vivo at 30 mg/kg with DBA/2 mice was 96%.
As for `O=C1CCN(c2cnc(Oc3ccc(F)cc3)nc2)C(=O)N1` [Example 11], the responders at 30 mg/kg in the assay with ICR mice [1] was ≥ 75%; in the assay on ICR mice [2], ≥ 50%. Besides, in the assay with DBA/2 mice, the inhibition in vivo at 30 mg/kg was determined as 97%.
In the case of `O=C1CCN(c2cnc(Oc3cccc(Br)c3)nc2)C(=O)N1` [Example 44], the responders at 30 mg/kg in the assay on ICR mice [1] was ≥ 50%. In the assay with DBA/2 mice, the inhibition in vivo at 30 mg/kg stood at 85%.
In the case of `Cc1cccc(Oc2ncc(N3CCC(=O)NC3=O)cn2)c1` [Example 22], the responders at 30 mg/kg in the assay with ICR mice [1] and with ICR mice [2] was ≥ 75% throughout. Besides, in the assay with DBA/2 mice, the inhibition in vivo at 30 mg/kg came to 100%.
Turning to `O=C1CCN(c2ccccc2)C(=O)N1` [Comparative Example, reference compound], the inhibition in vivo at 30 mg/kg in the assay with DBA/2 mice is 27%.
As for `O=C1CCN(c2cnc(Oc3cccc(SC(F)(F)F)c3)nc2)C(=O)N1` [Example 23], the responders at 30 mg/kg with ICR mice [1] is ≥ 75%; in the assay with ICR mice [2], ≥ 50%. Besides, the inhibition in vivo at 30 mg/kg with DBA/2 mice is 100%.
As to `C#Cc1ccc(Oc2ncc(N3CCC(=O)NC3=O)cn2)cc1` [Example 50], the inhibition in vivo at 30 mg/kg with DBA/2 mice came out at 82%.
Regarding `O=C1CCN(c2cnc(Oc3cccc(C(F)(F)F)c3)nc2)C(=O)N1` [Example 9], the inhibition in vivo at 30 mg/kg in the assay with DBA/2 mice was found to be 94%. Moreover, the responders at 30 mg/kg in the assay on ICR mice [2] was ≥ 50%.
On the same counts, the results for `O=C1CCN(c2cnc(Oc3cccc(-c4ccccc4)c3)nc2)C(=O)N1` [Example 45] are 92% and ≥ 50%.
`[2H]C([2H])([2H])Oc1cccc(Oc2ncc(N3CCC(=O)NC3=O)cn2)c1` [Example 25]: the inhibition in vivo at 30 mg/kg in the assay on DBA/2 mice turned out to be 89%.
With `O=C1CCN(c2cnc(Oc3ccccc3)nc2)C(=O)N1` [Example 1, 1-(2-Phenoxypyrimidin-5-yl)-5,6-dihydropyrimidine-2,4(1H,3H)-dione], the responders at 30 mg/kg in the assay with ICR mice [1] and in the assay with ICR mice [2] was ≥ 75% each time. In addition, the inhibition in vivo at 30 mg/kg in the assay on DBA/2 mice worked out at 100%.
For `COc1nc(Oc2c(F)cccc2F)ncc1N1CCC(=O)NC1=O` [Example 52], in the assay with DBA/2 mice, the inhibition in vivo at 30 mg/kg is 93%.
Consider `Cc1c(F)cccc1Oc1ncc(N2CCC(=O)NC2=O)cn1` [Example 6, 1-[2-(3-Fluoro-2-methylphenoxy)pyrimidin-5-yl]-5,6-dihydropyrimidine-2,4(1H,3H)-dione], for which, in the assay with DBA/2 mice, the inhibition in vivo at 30 mg/kg turned out to be 89%. Besides, the responders at 30 mg/kg in the assay with ICR mice [2] was ≥ 50%.
With `O=C1CCN(c2cnc(Oc3cccc(Cl)c3)nc2)C(=O)N1` [Example 26], the values for the responders at 30 mg/kg with ICR mice [1] and in the assay with ICR mice [2] were ≥ 50% and ≥ 75%, respectively. Moreover, the inhibition in vivo at 30 mg/kg in the assay on DBA/2 mice came to 100%.
With `COc1nc(Oc2ccc(F)cc2)ncc1N1CCC(=O)NC1=O` [Example 48], the inhibition in vivo at 30 mg/kg with DBA/2 mice was 96%. For the same compound, in the assay on ICR mice [2], the responders at 30 mg/kg is ≥ 75%.
Turning to `O=C1CCN(c2cnc(Oc3cccc(OC(F)(F)F)c3)nc2)C(=O)N1` [Example 10], the inhibition in vivo at 30 mg/kg in the assay on DBA/2 mice is 86%. Besides, the responders at 30 mg/kg in the assay with ICR mice [2] is ≥ 75%.
On the same counts, the results for `COc1nc(Oc2ccccc2)ncc1N1CCC(=O)NC1=O` [Example 18] are 100% and ≥ 75%.
Regarding `O=c1ccn(-c2cnc(Oc3cccc(F)c3)nc2)c(=O)[nH]1` [Example 41], the responders at 30 mg/kg in the assay on ICR mice [1] and in the assay with ICR mice [2] was ≥ 50% throughout. In addition, the inhibition in vivo at 30 mg/kg in the assay with DBA/2 mice was 96%.
For the compound `O=C1CCN(c2cnc(Oc3ccc(F)c(F)c3)nc2)C(=O)N1` [Example 15], in the assay with DBA/2 mice, the inhibition in vivo at 30 mg/kg amounted to 83%.
For the compound `O=C1CCN(c2cnc(Oc3cc(F)cc(F)c3)nc2)C(=O)N1` [Example 14], the responders at 30 mg/kg in the assay with ICR mice [1] and with ICR mice [2] was ≥ 75% each time. In the assay on DBA/2 mice, the inhibition in vivo at 30 mg/kg was 92%.
`CN1C(=O)CCN(c2cnc(Oc3cccc(F)c3)nc2)C1=O` [Example 5, 1-[2-(3-Fluorophenoxy)pyrimidin-5-yl]-3-methyl-5,6-dihydropyrimidine-2,4(1H,3H)-dione]: the responders at 30 mg/kg with ICR mice [1] and with ICR mice [2] was ≥ 75% in each case. Moreover, the inhibition in vivo at 30 mg/kg with DBA/2 mice came out at 100%.
Consider `Cc1cc(C)cc(Oc2ncc(N3CCC(=O)NC3=O)cn2)c1` [Example 37], for which the inhibition in vivo at 30 mg/kg in the assay on DBA/2 mice worked out at 77%.
Same read-out and setting: the figure for `O=C1CCN(c2cnc(Oc3ccc(Cl)cc3)nc2)C(=O)N1` [Example 40] is 81%.
As to `Cc1ccc(F)cc1Oc1ncc(N2CCC(=O)NC2=O)cn1` [Example 38], in the assay with DBA/2 mice, the inhibition in vivo at 30 mg/kg was 100%. In the assay on ICR mice [2], the responders at 30 mg/kg is ≥ 75%.
For `CC1CC(=O)NC(=O)N1c1cnc(Oc2ccccc2)nc1` (centres unmarked) [Example 16], the inhibition in vivo at 30 mg/kg in the assay on DBA/2 mice amounted to 100%. The responders at 30 mg/kg with ICR mice [2] is ≥ 75%.
Take `CCc1cccc(Oc2ncc(N3CCC(=O)NC3=O)cn2)c1` [Example 7, 1-[2-(3-Ethylphenoxy)pyrimidin-5-yl]-5,6-dihydropyrimidine-2,4(1H,3H)-dione]: the inhibition in vivo at 30 mg/kg in the assay with DBA/2 mice is 88%.
Turning to `COc1cccc(Oc2ncc(N3CCC(=O)NC3=O)cn2)c1` [Example 21], the inhibition in vivo at 30 mg/kg with DBA/2 mice turned out to be 93%.
For the compound `O=C1CCN(c2cnc(Sc3cccc(F)c3)nc2)C(=O)N1` [Example 31], the inhibition in vivo at 30 mg/kg in the assay on DBA/2 mice is 79%. The responders at 30 mg/kg with ICR mice [2] was ≥ 75%.
